Results as given in patent US20110166119A1 (Glade Organics Private Limited, priority 2008, published 2011).
Read-outs that look alike come from different tables or passages of the source.

Assays:
[1] = tested on: Pseudomonas aeruginosa (PA1 - ESBL producing); assay: Checkerboard MIC, Pseudomonas aeruginosa PA1; format: cell-based; conditions: for MIC in combination: Ertapenem + Aztreonam combination, Table 1; for MIC: Pseudomonas aeruginosa, PA1, read-out: MIC when taken individually
Procedure: (§1) The synergistic outcome of the combination was recorded as a concave curve.
(§2) The checkerboard array was performed in order to find the MIC's of selected antibacterial agents against the strains of Pseudomonas aeruginosa, Acinetobacter baumannii, Klebsiella pneumoniae and MRSA (Methicillin Resistant Staphylococcus aureus).
(§3) • 1. A total of 50 μl of Mueller-Hinton broth was distributed into each well of the micro dilution plates. • 2. The first antibiotic (A) of the combination was serially twofold diluted along the Y-axis, while the second antibiotic (B) was diluted along the X-axis. • 3. An inoculum equal to a 0.5 McFarland turbidity standard was prepared from each culture in sterile saline. • 4. Each micro titer well was inoculated with 100 μl of a bacterial inoculum and the plate was loaded on ELISA plate reader (37° C. for 24 hrs). Formula for ΣFIC (Fractional inhibitory concentration): […]
(§4) Where FIC A is the MIC of drug A in the combination/MIC of drug A alone,
(§5) FIC B is the MIC of drug B in the combination/MIC of drug B alone.
(§6) The combination is considered synergistic when the ΣFIC is ≦0.5, indifferent when the ΣFIC is >0.5 to <2, and antagonistic when the ΣFIC is ≧2.

[2] = tested on: Klebsiella pneumoniae (VIM producing); assay: Checkerboard MIC, Klebsiella pneumoniae; format: cell-based; conditions: for MIC: Klebsiella pneumoniae, single drug, read-out: MIC when taken individually
Procedure: as §2, §3, §4, §5, §6

Acinetobacter baumanii = assay: Checkerboard MIC, Acinetobacter baumanii; format: cell-based, Acinetobacter baumannii; conditions: for MIC: Acinetobacter baumannii, single drug, read-out: MIC when taken individually
Procedure: as §1, §2, §3, §4, §5, §6

[3] = tested on: Methicillin Resistant Staphylococcus aureus (MRSA); assay: Checkerboard MIC, MRSA; format: cell-based; conditions: for MIC: Staphylococcus aureus, MRSA, read-out: MIC when taken individually
Procedure: as §1, §2, §3, §4, §5, §6

[4] = tested on: Pseudomonas aeruginosa ATCC 27853; assay: Checkerboard MIC, Pseudomonas aeruginosa ATCC 27853; format: cell-based; conditions: for MIC in combination: Meropenem + Aztreonam combination, Table 6; for MIC: Pseudomonas aeruginosa, ATCC27853, read-out: MIC when taken individually
Procedure: as §2, §3, §4, §5, §6

[5] = Ertapenem 4.88 + Aztreonam 39.06
[6] = Ertapenem 9.76 + Aztreonam 19.53
[7] = Ertapenem 19.53 + Aztreonam 9.76
[8] = Ertapenem 1.22 + Aztreonam 2.44
[9] = Ertapenem 2.44 + Aztreonam 4.88
[10] = Ertapenem 4.88 + Aztreonam 9.76
[11] = Ertapenem + Aztreonam combination, Table 2
[12] = Ertapenem/Aztreonam checkerboard, Table 3
[13] = Ertapenem 0.61 + Aztreonam 312.5
[14] = Ertapenem 1.22 + Aztreonam 156.25
[15] = Ertapenem 2.44 + Aztreonam 78.12
[16] = Ertapenem + Aztreonam combination, Table 3
[17] = Ertapenem + Aztreonam combination, Table 4
[18] = Meropenem/Aztreonam checkerboard, Table 5
[19] = Meropenem 0.097 + Aztreonam 19.53
[20] = Meropenem 0.195 + Aztreonam 9.76
[21] = Meropenem + Aztreonam combination, Table 5
[22] = Meropenem/Aztreonam checkerboard, Table 8
[23] = Meropenem 1.22 + Aztreonam 9.76
[24] = Meropenem 2.44 + Aztreonam 4.88
[25] = Meropenem + Aztreonam combination, Table 8
[26] = Meropenem 6.1 + Aztreonam 19.53
[27] = Meropenem 12.2 + Aztreonam 9.76
[28] = Meropenem + Aztreonam combination, Table 7
[29] = Meropenem 0.0488 + Aztreonam 19.53
[30] = Meropenem 0.097 + Aztreonam 9.76

## C[C@@H](O)[C@H]1C(=O)N2C(C(=O)O)=C(S[C@@H]3CN[C@H](C(=O)Nc4cccc(C(=O)O)c4)C3)[C@H](C)[C@H]12 [Ertapenem]
[1]; [5]
  FIC of Ertapenem (x-co-ordinate): 0.5
[1]; [6]
  FIC of Ertapenem (x-co-ordinate): 1.0
[1]; [7]
  FIC of Ertapenem (x-co-ordinate): 2.0
[1]
  MIC in combination: 4.88 µg/mL
  MIC: 9.76 µg/mL
[2]; [8]
  FIC of Ertapenem (x-co-ordinate): 0.25
[2]; [9]
  FIC of Ertapenem (x-co-ordinate): 0.5
[2]; [10]
  FIC of Ertapenem (x-co-ordinate): (1.0,
[2]; [6]
  FIC of Ertapenem (x-co-ordinate): (2.0,
[2]; [11]
  MIC in combination: 4.88 µg/mL
[2]; Ertapenem/Aztreonam checkerboard, Table 2
  MIC: 1.22 µg/mL
Acinetobacter baumanii; [12]
  MIC: 9.76 µg/mL
Acinetobacter baumanii; [13]
  FIC of Ertapenem (x-co-ordinate): (0.0625,
Acinetobacter baumanii; [14]
  FIC of Ertapenem (x-co-ordinate): 0.125
Acinetobacter baumanii; [15]
  FIC of Ertapenem (x-co-ordinate): 0.25
Acinetobacter baumanii; [16]
  MIC in combination: 0.61 µg/mL
[3]; [5]
  FIC of Ertapenem (x-co-ordinate): 0.5
[3]; [6]
  FIC of Ertapenem (x-co-ordinate): 1
[3]; [7]
  FIC of Ertapenem (x-co-ordinate): 2
[3]; [17]
  MIC in combination: 4.88 µg/mL
[3]
  MIC: 9.76 µg/mL

## C[C@@H](O)[C@H]1C(=O)N2C(C(=O)O)=C(S[C@@H]3CN[C@H](C(=O)N(C)C)C3)[C@H](C)[C@H]12 [Meropenem]
[2]; [18]
  MIC: 0.781 µg/mL
[2]; [19]
  FIC of Meropenem (x-co-ordinate): 0.124
[2]; [20]
  FIC of Meropenem (x-co-ordinate): 0.2496
[2]; [21]
  MIC in combination: 0.097 µg/mL
Acinetobacter baumanii; [22]
  MIC: 19.5 µg/mL
Acinetobacter baumanii; [23]
  FIC of Meropenem (x-co-ordinate): 0.0625
Acinetobacter baumanii; [24]
  FIC of Meropenem (x-co-ordinate): 0.125
Acinetobacter baumanii; [25]
  MIC in combination: 1.22 µg/mL
[3]; [26]
  FIC of Meropenem (x-co-ordinate): 0.5
[3]; [27]
  FIC of Meropenem (x-co-ordinate): 1
[3]; [28]
  MIC in combination: 6.1 µg/mL
[3]
  MIC: 12.2 µg/mL
[4]; [29]
  FIC of Meropenem (x-co-ordinate): 0.25
[4]; [30]
  FIC of Meropenem (x-co-ordinate): 0.497
[4]; Meropenem 0.195 + Aztreonam 4.88
  FIC of Meropenem (x-co-ordinate): 1.0
[4]
  MIC in combination: 0.0488 µg/mL
  MIC: 0.195 µg/mL

## C[C@H]1[C@H](NC(=O)/C(=N\OC(C)(C)C(=O)O)c2csc(N)n2)C(=O)N1S(=O)(=O)O [Aztreonam]
[1]; [5]
  FIC of Aztreonam (y-co-ordinate): 1.0
[1]; [6]
  FIC of Aztreonam (y-co-ordinate): 0.5
[1]; [7]
  FIC of Aztreonam (y-co-ordinate): 0.249
[1]
  MIC in combination: 9.76 µg/mL
  MIC: 39.1 µg/mL
[2]; [8]
  FIC of Aztreonam (y-co-ordinate): 0.00195
[2]; [9]
  FIC of Aztreonam (y-co-ordinate): 0.0039
[2]; [10]
  FIC of Aztreonam (y-co-ordinate): 0.0078)
[2]; [6]
  FIC of Aztreonam (y-co-ordinate): 0.016)
[2]; [11]
  MIC in combination: 1.22 µg/mL
[2]; [18]
  MIC: 1200 µg/mL
[2]; [19]
  FIC of Aztreonam (y-coordinate): 0.016
[2]; [20]
  FIC of Aztreonam (y-coordinate): 0.078
[2]; [21]
  MIC in combination: 9.76 µg/mL
Acinetobacter baumanii; [12]
  MIC: 10000 µg/mL
Acinetobacter baumanii; [22]
  MIC: 5000 µg/mL
Acinetobacter baumanii; [13]
  FIC of Aztreonam (y-co-ordinate): 0.0313)
Acinetobacter baumanii; [14]
  FIC of Aztreonam (y-co-ordinate): 0.0156
Acinetobacter baumanii; [15]
  FIC of Aztreonam (y-co-ordinate): 0.0078
Acinetobacter baumanii; [16]
  MIC in combination: 78.12 µg/mL
Acinetobacter baumanii; [23]
  FIC of Aztreonam (y-co-ordinate): 0.0039
Acinetobacter baumanii; [24]
  FIC of Aztreonam (y-co-ordinate): 0.00195
Acinetobacter baumanii; [25]
  MIC in combination: 4.88 µg/mL
[3]; [5]
  FIC of Aztreonam (y-co-ordinate): 0.0078
[3]; [6]
  FIC of Aztreonam (y-co-ordinate): 0.0039
[3]; [7]
  FIC of Aztreonam (y-co-ordinate): 0.001952
[3]; [17]
  MIC in combination: 9.76 µg/mL
[3]; [26]
  FIC of Aztreonam (y-co-ordinate): 0.039
[3]; [27]
  FIC of Aztreonam (y-co-ordinate): 0.001952
[3]; [28]
  MIC in combination: 19.53 µg/mL
[3]
  MIC: 5000 µg/mL
[3]; single drug, Ertapenem/Aztreonam checkerboard, Table 4
  MIC when taken individually: 5000 µg/mL
[4]; [29]
  FIC of Aztreonam (y-co-ordinate): 0.5
[4]; [30]
  FIC of Aztreonam (y-co-ordinate): 0.25
[4]
  MIC in combination: 4.88 µg/mL
  MIC: 39.1 µg/mL
